Results reported in ChEMBL document CHEMBL4251572, “Novel aminopyrimidinyl benzimidazoles as potentially antimicrobial agents: Design, synthesis and biological evaluation” (Eur J Med Chem, 2018).
≈ marks a conversion by molar mass, not a printed value. Calls of active or inactive are those of the source. The calls are words filed in the database; no cut-off is given here.

Assays:
Calf thymus DNA [1] = assay: Binding affinity to calf thymus DNA assessed as hypochromic effect by UV-vis absorption spectra analysis; assay type: nucleic-acid assay; settings: Bos taurus
Staphylococcus aureus [2] = assay: Antibacterial activity against methicillin-resistant Staphylococcus aureus N315 after 16 serial passages by two-fold serial dilution assay; assay type: functional, organism-based
Salmonella typhi = assay: Antibacterial activity against Bacillus typhi after 24 hrs by micro broth dilution assay; assay type: functional, Salmonella enterica subsp. enterica serovar Typhi; settings: Salmonella enterica
Calf thymus DNA [3] = assay: Binding affinity to calf thymus DNA by UV-vis absorption spectra analysis; assay type: nucleic-acid assay; settings: Bos taurus
Pseudomonas aeruginosa [4] = assay: Antibacterial activity against Pseudomonas aeruginosa incubated for 24 hrs followed by plating onto tryptic soy agar medium and measured after 24 hrs; assay type: functional
Pichia norvegensis = assay: Antifungal against Candida mycoderma after 24 hrs by two fold serial dilution method; assay type: functional
Pseudomonas aeruginosa [5] = assay: Ratio of MBC for Pseudomonas aeruginosa to MIC for Pseudomonas aeruginosa; assay type: functional
Aspergillus flavus = assay: Antifungal against Aspergillus flavus after 24 hrs by two fold serial dilution method; assay type: functional
Albumin [6] = molecular target: T1, Albumin (Homo sapiens, UniProt P02768); assay: Binding affinity to HSA at 0.2 to 1 10'5 mol/L by synchronous fluorescence […]; assay type: ADME; settings: isolated protein
T1 sequence (P02768 whole entry): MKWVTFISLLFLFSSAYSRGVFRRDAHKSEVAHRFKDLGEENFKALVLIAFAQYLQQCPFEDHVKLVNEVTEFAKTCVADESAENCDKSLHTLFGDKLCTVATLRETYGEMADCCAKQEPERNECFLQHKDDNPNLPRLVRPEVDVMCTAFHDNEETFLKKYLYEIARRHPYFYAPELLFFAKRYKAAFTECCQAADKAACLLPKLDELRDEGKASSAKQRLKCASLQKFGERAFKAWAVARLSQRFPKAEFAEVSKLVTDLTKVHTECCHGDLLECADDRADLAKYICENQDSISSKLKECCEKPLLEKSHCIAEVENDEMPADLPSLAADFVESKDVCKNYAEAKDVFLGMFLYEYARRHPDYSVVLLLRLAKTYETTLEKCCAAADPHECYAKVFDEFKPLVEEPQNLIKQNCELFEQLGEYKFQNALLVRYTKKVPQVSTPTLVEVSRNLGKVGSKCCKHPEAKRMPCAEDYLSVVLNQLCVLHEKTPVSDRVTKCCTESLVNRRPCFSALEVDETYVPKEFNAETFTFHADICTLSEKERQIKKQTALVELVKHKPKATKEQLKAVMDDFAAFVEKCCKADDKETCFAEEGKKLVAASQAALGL

Albumin [7] = molecular target: T1, Albumin; assay: Binding affinity to HSA assessed as Stern-Volmer quenching constant at pH 7.4 at 284 K by fluorescence spectroscopic analysis; assay type: ADME; settings: isolated protein
Cyberlindnera jadinii = assay: Antifungal against Candida utilis after 24 hrs by two fold serial dilution method; assay type: functional; settings: Williopsis jadinii
Staphylococcus aureus [8] = assay: Ratio of MBC for Staphylococcus aureus ATCC 25923 to MIC for Staphylococcus aureus ATCC 25923; assay type: functional
Micrococcus luteus = assay: Antibacterial activity against Micrococcus luteus ATCC4698 after 24 hrs by micro broth dilution assay; assay type: functional; settings: ATCC4698, 24 h
Albumin [9] = molecular target: T1, Albumin; assay: Binding affinity to HSA assessed as Stern-Volmer quenching constant at pH 7.4 at 298 K by fluorescence spectroscopic analysis; assay type: ADME; settings: isolated protein
Escherichia coli [10] = assay: Antibacterial activity against Escherichia coli JM109 after 24 hrs by micro broth dilution assay; assay type: functional; settings: JM109, 24 h
Staphylococcus aureus [11] = assay: Antibacterial activity against Staphylococcus aureus ATCC 25923 incubated for 24 hrs followed by plating onto tryptic soy agar medium and measured after 24 hrs; assay type: functional; settings: ATCC 25923, 24 h
Calf thymus DNA [12] = assay: Binding affinity to calf thymus DNA assessed as Stern-Volmer quenching constant at 2 x 10^-5 mol/L at pH 7.4 at 298 K in presence of potassium iodide by fluorescence assay (reference value: 46.23 L/mol); assay type: nucleic-acid assay; settings: Bos taurus
Saccharomyces cerevisiae = assay: Antifungal against Saccharomyces cerevisiae after 24 hrs by two fold serial dilution method; assay type: functional
Staphylococcus aureus [13] = assay: Antibacterial activity against Staphylococcus aureus ATCC 25923 after 24 hrs by micro broth dilution assay; assay type: functional; settings: ATCC 25923, 24 h
Albumin [14] = molecular target: T1, Albumin; assay: Binding affinity to HSA assessed as increase in absorption intensity by UV-vis absorption spectra analysis; assay type: ADME; settings: isolated protein
Bacillus subtilis = assay: Antibacterial activity against Bacillus subtilis after 24 hrs by micro broth dilution assay; assay type: functional
Shigella dysenteriae = assay: Antibacterial activity against Shigella dysenteriae after 24 hrs by micro broth dilution assay; assay type: functional
Pseudomonas aeruginosa [15] = assay: Antibacterial activity against Pseudomonas aeruginosa after 24 hrs by micro broth dilution assay; assay type: functional
Albumin [16] = molecular target: T1, Albumin; assay: Binding affinity to HSA assessed as Stern-Volmer quenching constant at pH 7.4 at 303 K by fluorescence spectroscopic analysis; assay type: ADME; settings: isolated protein
Calf thymus DNA [17] = assay: Competitive binding affinity to calf thymus DNA assessed as reduction in DNA_AO complex fluorescence intensity by acridine orange staining-based assay; assay type: nucleic-acid assay; settings: Bos taurus
Staphylococcus aureus [18] = assay: Antibacterial activity against methicillin-resistant Staphylococcus aureus N315 incubated for 24 hrs followed by plating onto tryptic soy agar medium and measured after 24 hrs; assay type: functional; settings: N315, 24 h
HepG2 = assay: Induction of ROS generation in human HepG2 cells at 6.25 to 50 uM by DCFH-DA staining based fluorescence microscopic analysis; assay type: cell-based; settings: hepg2, 50 µM
Candida albicans = assay: Antifungal against Candida albicans ATCC 76615 after 24 hrs by two fold serial dilution method; assay type: functional; settings: ATCC 76615, 24 h
Bacillus = assay: Antibacterial activity against Bacillus proteus ATCC 13315 after 24 hrs by micro broth dilution assay; assay type: functional; settings: ATCC 13315, 24 h
L02 = assay: Cytotoxicity against human LO2 cells at 100 to 500 ug/ml after 48 hrs by MTT assay; assay type: cell-based; settings: l02, 48 h
Staphylococcus aureus [19] = assay: Antibacterial activity against methicillin-resistant Staphylococcus aureus N315 after 24 hrs by micro broth dilution assay; assay type: functional; settings: N315, 24 h
Escherichia coli [20] = assay: Antibacterial activity against Escherichia coli DH52 after 24 hrs by micro broth dilution assay; assay type: functional; settings: DH52, 24 h
Staphylococcus aureus [21] = assay: Ratio of MBC for methicillin-resistant Staphylococcus aureus N315 to MIC for methicillin-resistant Staphylococcus aureus N315; assay type: functional

SMILES: Cc1ccc(-c2cc(-c3nc4ccccc4[nH]3)nc(N)n2)cc1
- Activity (Calf thymus DNA [1]): Active
- Activity (Staphylococcus aureus [2]): Active
- MIC (Salmonella typhi): 2 µg/mL (≈ 6.64 µM)
- K (Calf thymus DNA [3]): 1.54 ×10⁴ L/mol
- MBC (Pseudomonas aeruginosa [4]): 8 µg/mL (≈ 26.5 µM)
- MIC (Pichia norvegensis): 4 µg/mL (≈ 13.3 µM)
- Ratio (Pseudomonas aeruginosa [5]): 2
- MIC (Aspergillus flavus): 1 µg/mL (≈ 3.32 µM)
- Activity (Albumin [6]): Active
- KSV (Albumin [7]): 1.96 ×10⁵ L/mol
- MIC (Cyberlindnera jadinii): 4 µg/mL (≈ 13.3 µM)
- Ratio (Staphylococcus aureus [8]): 1
- MIC (Micrococcus luteus): 8 µg/mL (≈ 26.5 µM)
- KSV (Albumin [9]): 1.9 ×10⁵ L/mol
- MIC (Escherichia coli [10]): 2 µg/mL (≈ 6.64 µM)
- MBC (Staphylococcus aureus [11]): 8 µg/mL (≈ 26.5 µM)
- KSV (Calf thymus DNA [12]): 39.9 L/mol
- MIC (Saccharomyces cerevisiae): 4 µg/mL (≈ 13.3 µM)
- MIC (Staphylococcus aureus [13]): 8 µg/mL (≈ 26.5 µM)
- Activity (Albumin [14]): Active
- MIC (Bacillus subtilis): 8 µg/mL (≈ 26.5 µM)
- MIC (Shigella dysenteriae): 16 µg/mL (≈ 53.1 µM)
- MIC (Pseudomonas aeruginosa [15]): 4 µg/mL (≈ 13.3 µM)
- KSV (Albumin [16]): 1.73 ×10⁵ L/mol
- Activity (Calf thymus DNA [17]): Dose-dependent effect
- MBC (Staphylococcus aureus [18]): 8 µg/mL (≈ 26.5 µM)
- Activity (HepG2): Non-Toxic
- MIC (Candida albicans): 8 µg/mL (≈ 26.5 µM)
- MIC (Bacillus): 4 µg/mL (≈ 13.3 µM)
- Activity (L02): Non-Toxic
- MIC (Staphylococcus aureus [19]): 8 µg/mL (≈ 26.5 µM)
- MIC (Escherichia coli [20]): 1 µg/mL (≈ 3.32 µM)

SMILES: CCCCCCn1c(-c2cc(-c3ccc(Cl)cc3)nc(N)n2)nc2ccccc21
- MIC (Salmonella typhi): 128 µg/mL (≈ 315 µM)
- MBC (Pseudomonas aeruginosa [4]): > 512 µg/mL
- MIC (Pichia norvegensis): 8 µg/mL (≈ 19.7 µM)
- MIC (Aspergillus flavus): 32 µg/mL (≈ 78.8 µM)
- MIC (Cyberlindnera jadinii): 8 µg/mL (≈ 19.7 µM)
- Ratio (Staphylococcus aureus [8]): 2
- MIC (Micrococcus luteus): 2 µg/mL (≈ 4.93 µM)
- MIC (Escherichia coli [10]): 16 µg/mL (≈ 39.4 µM)
- MBC (Staphylococcus aureus [11]): 512 µg/mL (≈ 1260 µM)
- MIC (Saccharomyces cerevisiae): 512 µg/mL (≈ 1260 µM)
- MIC (Staphylococcus aureus [13]): 256 µg/mL (≈ 631 µM)
- MIC (Bacillus subtilis): 128 µg/mL (≈ 315 µM)
- MIC (Shigella dysenteriae): 64 µg/mL (≈ 158 µM)
- MIC (Pseudomonas aeruginosa [15]): 512 µg/mL (≈ 1260 µM)
- MBC (Staphylococcus aureus [18]): 32 µg/mL (≈ 78.8 µM)
- MIC (Candida albicans): 4 µg/mL (≈ 9.85 µM)
- Ratio (Staphylococcus aureus [21]): 1
- MIC (Bacillus): 256 µg/mL (≈ 631 µM)
- MIC (Staphylococcus aureus [19]): 32 µg/mL (≈ 78.8 µM)
- MIC (Escherichia coli [20]): 2 µg/mL (≈ 4.93 µM)

SMILES: Nc1nc(-c2ccc(F)cc2)cc(-c2nc3ccccc3[nH]2)n1
- MIC (Salmonella typhi): 8 µg/mL (≈ 26.2 µM)
- MBC (Pseudomonas aeruginosa [4]): 16 µg/mL (≈ 52.4 µM)
- MIC (Pichia norvegensis): 256 µg/mL (≈ 838 µM)
- Ratio (Pseudomonas aeruginosa [5]): 1
- MIC (Aspergillus flavus): 256 µg/mL (≈ 838 µM)
- MIC (Cyberlindnera jadinii): 128 µg/mL (≈ 419 µM)
- Ratio (Staphylococcus aureus [8]): 1
- MIC (Micrococcus luteus): 32 µg/mL (≈ 105 µM)
- MIC (Escherichia coli [10]): 128 µg/mL (≈ 419 µM)
- MBC (Staphylococcus aureus [11]): 2 µg/mL (≈ 6.55 µM)
- MIC (Saccharomyces cerevisiae): 64 µg/mL (≈ 210 µM)
- MIC (Staphylococcus aureus [13]): 2 µg/mL (≈ 6.55 µM)
- MIC (Bacillus subtilis): 2 µg/mL (≈ 6.55 µM)
- MIC (Shigella dysenteriae): 16 µg/mL (≈ 52.4 µM)
- MIC (Pseudomonas aeruginosa [15]): 16 µg/mL (≈ 52.4 µM)
- MBC (Staphylococcus aureus [18]): 512 µg/mL (≈ 1680 µM)
- MIC (Candida albicans): 8 µg/mL (≈ 26.2 µM)
- Ratio (Staphylococcus aureus [21]): 4
- MIC (Bacillus): 128 µg/mL (≈ 419 µM)
- MIC (Staphylococcus aureus [19]): 128 µg/mL (≈ 419 µM)
- MIC (Escherichia coli [20]): 128 µg/mL (≈ 419 µM)

SMILES: CCCCCCCn1c(-c2cc(-c3ccc(Cl)cc3Cl)nc(N)n2)nc2ccccc21
- MIC (Salmonella typhi): 32 µg/mL (≈ 70.4 µM)
- MBC (Pseudomonas aeruginosa [4]): 128 µg/mL (≈ 282 µM)
- MIC (Pichia norvegensis): 256 µg/mL (≈ 563 µM)
- Ratio (Pseudomonas aeruginosa [5]): 2
- MIC (Aspergillus flavus): 256 µg/mL (≈ 563 µM)
- MIC (Cyberlindnera jadinii): 128 µg/mL (≈ 282 µM)
- Ratio (Staphylococcus aureus [8]): 2
- MIC (Micrococcus luteus): 16 µg/mL (≈ 35.2 µM)
- MIC (Escherichia coli [10]): 512 µg/mL (≈ 1130 µM)
- MBC (Staphylococcus aureus [11]): 512 µg/mL (≈ 1130 µM)
- MIC (Saccharomyces cerevisiae): 128 µg/mL (≈ 282 µM)
- MIC (Staphylococcus aureus [13]): 256 µg/mL (≈ 563 µM)
- MIC (Bacillus subtilis): 256 µg/mL (≈ 563 µM)
- MIC (Shigella dysenteriae): 128 µg/mL (≈ 282 µM)
- MIC (Pseudomonas aeruginosa [15]): 64 µg/mL (≈ 141 µM)
- MBC (Staphylococcus aureus [18]): > 512 µg/mL
- MIC (Candida albicans): 4 µg/mL (≈ 8.8 µM)
- MIC (Bacillus): 512 µg/mL (≈ 1130 µM)
- MIC (Staphylococcus aureus [19]): 512 µg/mL (≈ 1130 µM)
- MIC (Escherichia coli [20]): 32 µg/mL (≈ 70.4 µM)

SMILES: CCCCCCCn1c(-c2cc(-c3ccc(C)cc3)nc(N)n2)nc2ccccc21
- MIC (Salmonella typhi): 2 µg/mL (≈ 5.01 µM)
- MBC (Pseudomonas aeruginosa [4]): 4 µg/mL (≈ 10 µM)
- MIC (Pichia norvegensis): 512 µg/mL (≈ 1280 µM)
- Ratio (Pseudomonas aeruginosa [5]): 1
- MIC (Aspergillus flavus): 512 µg/mL (≈ 1280 µM)
- MIC (Cyberlindnera jadinii): 32 µg/mL (≈ 80.1 µM)
- MIC (Micrococcus luteus): 8 µg/mL (≈ 20 µM)
- MIC (Escherichia coli [10]): 16 µg/mL (≈ 40 µM)
- MBC (Staphylococcus aureus [11]): > 512 µg/mL
- MIC (Saccharomyces cerevisiae): 4 µg/mL (≈ 10 µM)
- MIC (Staphylococcus aureus [13]): 512 µg/mL (≈ 1280 µM)
- MIC (Bacillus subtilis): 512 µg/mL (≈ 1280 µM)
- MIC (Shigella dysenteriae): 4 µg/mL (≈ 10 µM)
- MIC (Pseudomonas aeruginosa [15]): 4 µg/mL (≈ 10 µM)
- MBC (Staphylococcus aureus [18]): 32 µg/mL (≈ 80.1 µM)
- MIC (Candida albicans): 32 µg/mL (≈ 80.1 µM)
- Ratio (Staphylococcus aureus [21]): 1
- MIC (Bacillus): 256 µg/mL (≈ 641 µM)
- MIC (Staphylococcus aureus [19]): 32 µg/mL (≈ 80.1 µM)
- MIC (Escherichia coli [20]): 4 µg/mL (≈ 10 µM)
